In ChEMBL document CHEMBL1135564, “Diaryl-dialkyl-substituted pyrazoles: regioselective synthesis and binding affinity for the estrogen receptor” (Bioorg Med Chem Lett, 2002):

Assays:
[1] = biological target: Estrogen receptor (Homo sapiens) (UniProt Q92731+P03372); assay: Selectivity ratio as relative binding affinity for estrogen receptor alpha and beta; assay type: protein assay
[2] = biological target: Estrogen receptor beta (Homo sapiens) (UniProt Q92731); assay: Relative binding affinity (RBA) for human Estrogen receptor beta compared to estradiol
Chain of Estrogen receptor beta (Homo sapiens) (Q92731 whole entry): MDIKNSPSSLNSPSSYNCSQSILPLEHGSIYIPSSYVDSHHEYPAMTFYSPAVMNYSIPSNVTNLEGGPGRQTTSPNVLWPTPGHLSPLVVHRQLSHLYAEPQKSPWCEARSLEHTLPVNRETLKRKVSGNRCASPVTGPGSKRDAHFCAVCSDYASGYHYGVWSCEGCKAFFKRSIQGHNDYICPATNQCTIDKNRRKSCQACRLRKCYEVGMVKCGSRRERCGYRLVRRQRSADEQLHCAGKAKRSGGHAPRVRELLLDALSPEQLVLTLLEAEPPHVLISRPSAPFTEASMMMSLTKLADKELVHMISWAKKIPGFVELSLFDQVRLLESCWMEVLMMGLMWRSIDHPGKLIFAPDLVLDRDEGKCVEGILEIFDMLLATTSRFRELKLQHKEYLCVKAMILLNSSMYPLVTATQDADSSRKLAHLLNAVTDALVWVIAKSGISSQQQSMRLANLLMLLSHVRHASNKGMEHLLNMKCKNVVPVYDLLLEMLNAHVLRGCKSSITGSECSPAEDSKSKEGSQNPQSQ

[3] = biological target: T1, Estrogen receptor (Homo sapiens) (UniProt P03372); assay: Relative binding affinity (RBA) for human Estrogen receptor alpha compared to estradiol
T1 sequence (whole entry): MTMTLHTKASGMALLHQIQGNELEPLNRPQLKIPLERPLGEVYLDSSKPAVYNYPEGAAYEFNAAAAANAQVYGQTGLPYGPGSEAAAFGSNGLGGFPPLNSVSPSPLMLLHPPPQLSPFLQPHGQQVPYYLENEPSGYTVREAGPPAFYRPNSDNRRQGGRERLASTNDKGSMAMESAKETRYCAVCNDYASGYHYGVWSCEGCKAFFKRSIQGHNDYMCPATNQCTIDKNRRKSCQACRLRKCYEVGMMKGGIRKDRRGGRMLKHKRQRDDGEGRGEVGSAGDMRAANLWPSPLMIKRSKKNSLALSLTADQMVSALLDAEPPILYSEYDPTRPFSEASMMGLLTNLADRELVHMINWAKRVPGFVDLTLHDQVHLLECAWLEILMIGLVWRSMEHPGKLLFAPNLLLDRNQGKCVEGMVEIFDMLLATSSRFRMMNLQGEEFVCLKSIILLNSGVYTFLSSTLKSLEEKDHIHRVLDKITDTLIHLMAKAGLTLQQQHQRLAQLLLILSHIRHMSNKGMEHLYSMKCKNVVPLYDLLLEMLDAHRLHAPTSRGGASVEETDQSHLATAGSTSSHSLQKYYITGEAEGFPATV

Structure (SMILES)	Ratio [1]	Affinity [2]	Affinity [3]
CCCc1c(-c2ccc(O)cc2)nn(C2CCCC2)c1-c1ccc(O)cc1	1	71	74
Oc1ccc(-c2nn(-c3ccc(O)cc3)c3c2CCCC3)cc1	13	0.042	0.56
CCCc1c(-c2ccc(O)cc2)nn(-c2ccc(O)cc2)c1C1CCCCC1	9.4	0.11	1.1
Oc1ccc(-c2nn(-c3ccc(O)cc3)c3c2CCCCC3)cc1	4	0.047	0.19
CCc1c(-c2ccc(O)cc2)nn(-c2ccc(O)cc2)c1C1CCCC1	8.9	0.23	2.1
CCCc1c(-c2ccc(O)cc2)nn(-c2ccc(O)cc2)c1-c1ccc(O)cc1	410	0.12	49
CCCc1c(-c2ccc(O)cc2)nn(-c2ccc(O)cc2)c1C1CCCC1	6	0.6	3.6
CCCc1c(-c2ccc(O)cc2)nn(C2CCCCC2)c1-c1ccc(O)cc1	2.3	13	30
CCc1c(-c2ccc(O)cc2)nn(-c2ccc(O)cc2)c1C1CCCCC1	4.2	0.14	0.59
